Assay results: ChEMBL document CHEMBL5338820, “Discovery and Design of Novel Cyclic Peptides as Specific Inhibitors Targeting CCN2 and Disrupting CCN2/EGFR Interaction for Kidney Fibrosis Treatment” (J Med Chem, 2023)
pKd: −log10 of the molar value. The source made the active and inactive calls. The calls are words filed in the database; no cut-off is given here. Peptide text beside a SMILES is read from it.

Experiments:
[1] = biological target: T1, CCN family member 2 (Homo sapiens) (UniProt P29279); test: Inhibition of recombinant human CCN2 FL domain expressed in human […] cells assessed as reduction in COL1A1 synthesis at 20 uM incubated for 24 hrs by Western blotting assay; format: cell-based
T1 sequence (whole entry): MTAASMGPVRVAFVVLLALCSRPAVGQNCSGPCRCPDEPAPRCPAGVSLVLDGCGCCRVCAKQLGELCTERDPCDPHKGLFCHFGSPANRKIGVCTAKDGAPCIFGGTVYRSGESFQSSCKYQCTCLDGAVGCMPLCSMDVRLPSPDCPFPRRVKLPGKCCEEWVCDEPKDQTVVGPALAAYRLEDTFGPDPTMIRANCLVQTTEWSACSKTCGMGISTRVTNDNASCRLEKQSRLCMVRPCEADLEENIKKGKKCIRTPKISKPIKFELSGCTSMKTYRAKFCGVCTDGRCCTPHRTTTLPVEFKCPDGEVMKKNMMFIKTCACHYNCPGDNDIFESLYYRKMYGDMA

[2] = biological target: T1, CCN family member 2 (Homo sapiens); test: Inhibition of recombinant human CCN2 FL domain expressed in human HK-1 cells assessed as reduction in fibronectin synthesis at 20 uM incubated for 24 hrs by Western blotting assay; format: cell-based
[3] = biological target: T1, CCN family member 2 (Homo sapiens); test: Inhibition of recombinant human CCN2 FL domain expressed in human […] cells assessed as reduction in COL1A1 synthesis at 4 to 100 uM incubated for 24 hrs by Western blotting assay; format: cell-based; conditions: dose 4-100 µM
CCN2-EGFR (Homo sapiens) [4] = biological target: T2, CCN2-EGFR (Homo sapiens) (UniProt P00533+P29279); test: Inhibition of His-tagged full length human CCN2 FL domain/human Fc-tagged EGFR protein-protein interaction using TMB as chromogenic substrate at 100 uM incubated for 140 mins by microplate reader assay relative to control
T2 sequence (P00533 whole entry, looked up, one chain of several, the tested form may be a part): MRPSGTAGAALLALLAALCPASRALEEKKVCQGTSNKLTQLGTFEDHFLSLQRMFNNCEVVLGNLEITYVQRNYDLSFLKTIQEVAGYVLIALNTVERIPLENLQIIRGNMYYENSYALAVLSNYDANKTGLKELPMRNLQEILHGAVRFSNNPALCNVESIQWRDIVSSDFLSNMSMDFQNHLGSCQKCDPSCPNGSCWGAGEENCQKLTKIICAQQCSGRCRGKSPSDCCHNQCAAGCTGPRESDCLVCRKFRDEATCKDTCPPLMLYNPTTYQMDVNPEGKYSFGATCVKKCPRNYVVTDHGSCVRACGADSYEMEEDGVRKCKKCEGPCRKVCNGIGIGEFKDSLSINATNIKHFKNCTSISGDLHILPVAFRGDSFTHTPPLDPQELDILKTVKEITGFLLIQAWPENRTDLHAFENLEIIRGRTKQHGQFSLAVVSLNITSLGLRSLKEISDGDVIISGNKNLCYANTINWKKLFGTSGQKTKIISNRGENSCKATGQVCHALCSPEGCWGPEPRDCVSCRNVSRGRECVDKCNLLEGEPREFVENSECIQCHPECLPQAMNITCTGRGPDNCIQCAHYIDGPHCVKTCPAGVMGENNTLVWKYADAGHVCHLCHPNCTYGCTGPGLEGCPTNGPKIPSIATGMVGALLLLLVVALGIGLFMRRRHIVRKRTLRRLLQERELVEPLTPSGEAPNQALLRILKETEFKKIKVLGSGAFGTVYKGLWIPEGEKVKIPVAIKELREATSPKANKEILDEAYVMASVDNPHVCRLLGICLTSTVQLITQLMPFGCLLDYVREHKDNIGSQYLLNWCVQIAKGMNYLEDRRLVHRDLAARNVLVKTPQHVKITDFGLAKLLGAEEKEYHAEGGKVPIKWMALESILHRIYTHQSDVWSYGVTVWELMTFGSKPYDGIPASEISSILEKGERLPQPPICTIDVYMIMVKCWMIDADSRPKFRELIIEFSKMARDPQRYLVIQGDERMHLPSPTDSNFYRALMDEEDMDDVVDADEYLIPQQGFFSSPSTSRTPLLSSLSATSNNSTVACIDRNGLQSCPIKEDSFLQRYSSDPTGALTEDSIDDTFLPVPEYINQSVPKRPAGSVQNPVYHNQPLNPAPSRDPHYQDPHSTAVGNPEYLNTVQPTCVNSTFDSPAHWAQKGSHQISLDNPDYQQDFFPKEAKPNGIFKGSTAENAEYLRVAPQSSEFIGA

CCN2-EGFR (Homo sapiens) [5] = biological target: T2, CCN2-EGFR (Homo sapiens); test: Inhibition of His-tagged full length human CCN2 CT domain/human Fc-tagged EGFR protein-protein interaction using TMB as chromogenic substrate at 100 uM incubated for 140 mins by microplate reader assay relative to control
[6] = biological target: T1, CCN family member 2 (Homo sapiens); test: Inhibition of recombinant human CCN2 FL domain expressed in human […] cells assessed as reduction in fibronectin synthesis at 4 to 100 uM incubated for 24 hrs by Western blotting assay; format: cell-based; conditions: dose 4-100 µM
[7] = biological target: T1, CCN family member 2 (Homo sapiens); test: Inhibition of recombinant human CCN2 FL domain expressed in human […] cells assessed as reduction in STAT3 phosphorylation at 100 uM incubated for 24 hrs by Western blotting assay; format: cell-based
[8] = biological target: T1, CCN family member 2 (Homo sapiens); test: Inhibition of recombinant human CCN2 CT domain expressed in human […] cells assessed as reduction in fibronectin synthesis at 100 uM incubated for 24 hrs by Western blotting assay; format: cell-based
[9] = biological target: T1, CCN family member 2 (Homo sapiens); test: Inhibition of recombinant human CCN2 CT domain expressed in human […] cells assessed as reduction in COL1A1 synthesis at 100 uM incubated for 24 hrs by Western blotting assay; format: cell-based
CCN family member 2 = biological target: T3, CCN family member 2 (Homo sapiens, UniProt P29279); test: Binding affinity to His-tagged full length human CCN2 CT domain assessed as dissociation constant by isothermal titration calorimetry assay
T3 sequence (P29279 whole entry): T1 sequence (whole entry)

[10] = Cmax in Sprague-Dawley rat at 1 mg/kg,SC measured upto 48 hrs by LC-MS/MS analysis; format: ADME, organism-based; parameters: time < 48 hrs, dose 1 mg/kg, route sc; conditions: in vivo
[11] = Tmax in Sprague-Dawley rat at 1 mg/kg,SC measured upto 48 hrs by LC-MS/MS analysis; format: ADME, organism-based; conditions: in vivo
[12] = Half life in Sprague-Dawley rat at 1 mg/kg,SC measured upto 48 hrs by LC-MS/MS analysis; format: ADME, organism-based; conditions: in vivo
[13] = AUC (0-t) in Sprague-Dawley rat at 1 mg/kg,SC measured upto 48 hrs by LC-MS/MS analysis; format: ADME, organism-based; parameters: time < 48 hrs, dose 1 mg/kg, route sc; conditions: in vivo
[14] = Toxicity in Unilateral ureteric obstruction C57BL/6J mouse model assessed as change in hair color at 50 microg/kg,ip administrated for 14 days; conditions: in vivo, 0.05 mg/kg, 336 h, dose 50 µg/kg, time 14 day
[15] = Toxicity in Unilateral ureteric obstruction C57BL/6J mouse model assessed as change in behaviour at 50 microg/kg,ip administrated for 14 days; conditions: in vivo, 0.05 mg/kg, 336 h, dose 50 µg/kg, time 14 day
[16] = Toxicity in Unilateral ureteric obstruction C57BL/6J mouse model assessed as change in food consumption at 50 microg/kg,ip administrated for 14 days; conditions: in vivo, 0.05 mg/kg, 336 h, dose 50 µg/kg, time 14 day
[17] = Toxicity in Unilateral ureteric obstruction C57BL/6J mouse model assessed as change in body weight at 50 microg/kg,ip administrated for 14 days; conditions: in vivo, 0.05 mg/kg, 336 h, dose 50 µg/kg, time 14 day
Mus musculus [18] = test: Antifibrotic activity against Unilateral ureteric obstruction ligation induced C57BL/6J mouse kidney fibrosis model assessed as reduction of renal tubular injury at 50 microg/kg,ip administrated for 14 days by hematoxylin and eosin staining based analysis; format: functional, organism-based; conditions: dose 50.0 µg/kg, time 14.0 day
Mus musculus [19] = test: Antifibrotic activity against Unilateral ureteric obstruction ligation induced C57BL/6J mouse kidney fibrosis model assessed as reduction of inflammatory infiltration at 50 microg/kg,ip administrated for 14 days by hematoxylin and eosin staining based analysis; format: functional, organism-based; conditions: dose 50.0 µg/kg, time 14.0 day
Mus musculus [20] = test: Antifibrotic activity against Unilateral ureteric obstruction ligation induced C57BL/6J mouse kidney fibrosis model assessed as reduction of collagen formation at 50 microg/kg,ip administrated for 14 days by […] staining based analysis; format: functional, organism-based; conditions: dose 50.0 µg/kg, time 14.0 day
Mus musculus [21] = test: Antifibrotic activity against Unilateral ureteric obstruction ligation induced C57BL/6J mouse kidney fibrosis model assessed as downregulation of EGFR phosphorylation at 50 microg/kg,ip administrated for 14 days by Western blotting analysis; format: functional, organism-based; conditions: dose 50.0 µg/kg, time 14.0 day
Mus musculus [22] = test: Antifibrotic activity against Unilateral ureteric obstruction ligation induced C57BL/6J mouse kidney fibrosis model assessed as downregulation of STAT3 phosphorylation at 50 microg/kg,ip administrated for 14 days by Western blotting analysis; format: functional, organism-based; conditions: dose 50.0 µg/kg, time 14.0 day
Mus musculus [23] = test: Antifibrotic activity against Unilateral ureteric obstruction ligation induced C57BL/6J mouse kidney fibrosis model assessed as downregulation of fibronectin synthesis at 50 microg/kg,ip administrated for 14 days by Western blotting analysis; format: functional, organism-based; conditions: dose 50.0 µg/kg, time 14.0 day
Mus musculus [24] = test: Antifibrotic activity against Unilateral ureteric obstruction ligation induced C57BL/6J mouse kidney fibrosis model assessed as downregulation of COL1A1 synthesis at 50 microg/kg,ip administrated for 14 days by Western blotting analysis; format: functional, organism-based; conditions: dose 50.0 µg/kg, time 14.0 day

C[C@@H](O)[C@@H]1NC(=O)[C@H](Cc2c[nH]c3ccccc23)NC(=O)[C@@H]2CCCN2C(=O)[C@H](CCCNC(=N)N)NC(=O)[C@H](Cc2c[nH]cn2)NC(=O)[C@H](CCCCN)NC(=O)[C@H]([C@@H](C)O)NC1=O (cyclo(HRPWTTK))
inhibition [1]: Active
inhibition [2]: Active
inhibition [3]: Dose-Dependent Effect
inhibition (CCN2-EGFR (Homo sapiens) [4]): 63.8%
inhibition (CCN2-EGFR (Homo sapiens) [5]): 76.7%
inhibition [6]: Dose-Dependent Effect
inhibition [7]: Active
inhibition [8]: Active
inhibition [9]: Active
pKd (CCN family member 2): 5.51
Cmax [10]: 1060 ng/mL
Tmax [11]: 60 min
half-life [12]: 54 min
AUC(0-t) at 48 h [13]: 3030 ng·h/mL
Activity [14]: Non-Toxic
Activity [15]: Non-Toxic
Activity [16]: Non-Toxic
Activity [17]: Non-Toxic
Activity (Mus musculus [18]): Active
Activity (Mus musculus [19]): Active
Activity (Mus musculus [20]): Active
Activity (Mus musculus [21]): Active
Activity (Mus musculus [22]): Active
Activity (Mus musculus [23]): Active
Activity (Mus musculus [24]): Active
